Where two headings read alike, the source gives them in different places.
Legend:
[1] = test system: E. coli BW25113 overexpression strains (ASKA plasmids); test: Minimum inhibitory concentration (MIC), serial broth dilution, single-gene overexpression strains vs empty-vector control; type: cell-based, Escherichia coli; conditions: for Average relative change in MIC: mlaD overexpression strain relative to control (wild-type+empty vector), 3 replicates each, from optical density values of serial dilution plates, AMP in µg ml-1; for Relative MIC: broth dilution, MS medium, 100 µM IPTG, 30 °C, 20-24 h, OD600, 3 replicates
How it was run: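 E. coli overexpression strains grown in MS medium with chloramphenicol, induced with 100 µM IPTG for 1 h at 30 °C, then about half-million cells inoculated into 12-step AMP dilutions (typically 1.2-fold steps). OD600 read after 20–24 h at 30 °C with shaking; triplicate strains compared with empty-vector control.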

[2] = test system: AMP-evolved E. coli lines; conditions: ref Spohn et al 2019, cited from earlier work
Excerpt: Supplement 41467_2019_13618_MOESM13_ESM.xlsx, sheet "Figure 6 and S15" | column: A comprehensive dataset of antimicrobial susceptibility of AMP-adapted lines to antimicrobial peptides (AMPs).

[3] = overexpression strain mlaC, MIC of overexpression strain / MIC of empty-plasmid control
[4] = overexpression strain mlaD, MIC of the overexpression strain / MIC of the control strain (wild-type carrying the empty plasmid)

Q: With “GLRKRLRKFRNKIKEKLKKIGQKIQGFVPKLAPRTDY [CAP18, antimicrobial peptide, source rabbit; disrupts cell membrane; cluster C3]” as the sequence, how does the “Average relative change in MIC” value [1] read?
A: 1.86

Q: And the “Relative MIC” value ([1]; overexpression strain hyfA, MIC of overexpression strain / MIC of empty-plasmid control)?
A: 0.72

Q: What about the “Relative MIC” value [1, 3] of the same sequence?
A: 2.1

Q: And the “Relative MIC” value [1, 4]?
A: 2.42

Q: What about the “Relative MIC” value ([1]; overexpression strain murA, MIC of overexpression strain / MIC of empty-plasmid control) of the same sequence?
A: >2.25

Q: And the “Relative MIC” value ([1]; overexpression strain narY, MIC of overexpression strain / MIC of empty-plasmid control)?
A: 0.76

Q: What about the “Relative MIC” value ([1]; overexpression strain rpoH, MIC of overexpression strain / MIC of empty-plasmid control) of the same sequence?
A: >2.25

Q: And the “Relative MIC” value ([1]; overexpression strain uhpC, MIC of overexpression strain / MIC of empty-plasmid control)?
A: 1.66

Q: What about the “Relative MIC” value ([1]; overexpression strain yhbJ, MIC of overexpression strain / MIC of empty-plasmid control) of the same sequence?
A: >2.25

Q: And the “Relative MIC” value ([1]; overexpression strain ytjB, MIC of overexpression strain / MIC of empty-plasmid control)?
A: 1.72

Q: Which “Average relative change in MIC” value [1] does the source give for “RWCFRVCYRGICYRKCR [TPII, Tachyplesin II, antimicrobial peptide from Japanese horseshoe crab; disrupts cell membrane; cluster C1]” here?
A: 1.47

Q: What about the “Relative MIC” value ([1]; overexpression strain gadW, MIC of overexpression strain / MIC of empty-plasmid control) of the same sequence?
A: 1

Q: What about the “Relative MIC” value [1, 3] of the same sequence?
A: 1

Q: And the “Relative MIC” value [1, 4]?
A: 1.47

Q: What about the “Relative MIC” value ([1]; overexpression strain mzrA, MIC of overexpression strain / MIC of empty-plasmid control) of the same sequence?
A: 1.27

Q: And the “Relative MIC” value ([1]; overexpression strain nikB, MIC of overexpression strain / MIC of empty-plasmid control)?
A: 0.8

Q: What about the “Relative change in MIC (MIC of the AMP-adpated line / MIC of the ancestral strain)” value ([2]; AMP-adapted line BAC5_3) of the same sequence?
A: 1

Q: And the “Relative change in MIC (MIC of the AMP-adpated line / MIC of the ancestral strain)” value ([2]; AMP-adapted line BAC5_5)?
A: 1

Q: What about the “Relative change in MIC (MIC of the AMP-adpated line / MIC of the ancestral strain)” value ([2]; AMP-adapted line BAC5_7) of the same sequence?
A: 1.1

Q: What about the “Relative change in MIC (MIC of the AMP-adpated line / MIC of the ancestral strain)” value ([2]; AMP-adapted line BAC5_10) of the same sequence?
A: 1.1

Q: What about the “Relative change in MIC (MIC of the AMP-adpated line / MIC of the ancestral strain)” value ([2]; AMP-adapted line CAP18_2) of the same sequence?
A: 1.1

Q: And the “Relative change in MIC (MIC of the AMP-adpated line / MIC of the ancestral strain)” value ([2]; AMP-adapted line CAP18_5)?
A: 1

Q: And the “Relative change in MIC (MIC of the AMP-adpated line / MIC of the ancestral strain)” value ([2]; AMP-adapted line CAP18_6)?
A: 1

Q: What about the “Relative change in MIC (MIC of the AMP-adpated line / MIC of the ancestral strain)” value ([2]; AMP-adapted line CAP18_8) of the same sequence?
A: 1.1

Q: And the “Relative change in MIC (MIC of the AMP-adpated line / MIC of the ancestral strain)” value ([2]; AMP-adapted line CAP18_10)?
A: 1

Q: And the “Relative change in MIC (MIC of the AMP-adpated line / MIC of the ancestral strain)” value ([2]; AMP-adapted line HBD3_3)?
A: 1.2

Q: And the “Relative change in MIC (MIC of the AMP-adpated line / MIC of the ancestral strain)” value ([2]; AMP-adapted line HBD3_6)?
A: 1.2

Q: What about the “Relative change in MIC (MIC of the AMP-adpated line / MIC of the ancestral strain)” value ([2]; AMP-adapted line HBD3_8) of the same sequence?
A: 1.2

Q: And the “Relative change in MIC (MIC of the AMP-adpated line / MIC of the ancestral strain)” value ([2]; AMP-adapted line HBD3_10)?
A: 1.2

Q: What about the “Relative change in MIC (MIC of the AMP-adpated line / MIC of the ancestral strain)” value ([2]; AMP-adapted line LL37_1) of the same sequence?
A: 1.1

Q: And the “Relative change in MIC (MIC of the AMP-adpated line / MIC of the ancestral strain)” value ([2]; AMP-adapted line LL37_3)?
A: 1.1

Q: What about the “Relative change in MIC (MIC of the AMP-adpated line / MIC of the ancestral strain)” value ([2]; AMP-adapted line LL37_6) of the same sequence?
A: 1

Q: What about the “Relative change in MIC (MIC of the AMP-adpated line / MIC of the ancestral strain)” value ([2]; AMP-adapted line LL37_7) of the same sequence?
A: 1

Q: What about the “Relative change in MIC (MIC of the AMP-adpated line / MIC of the ancestral strain)” value ([2]; AMP-adapted line LL37_10) of the same sequence?
A: 1

Q: What about the “Relative change in MIC (MIC of the AMP-adpated line / MIC of the ancestral strain)” value ([2]; AMP-adapted line PEX_1) of the same sequence?
A: 1.1

Q: And the “Relative change in MIC (MIC of the AMP-adpated line / MIC of the ancestral strain)” value ([2]; AMP-adapted line PEX_4)?
A: 1.2

Q: What about the “Relative change in MIC (MIC of the AMP-adpated line / MIC of the ancestral strain)” value ([2]; AMP-adapted line PEX_5) of the same sequence?
A: 1.1

Q: What about the “Relative change in MIC (MIC of the AMP-adpated line / MIC of the ancestral strain)” value ([2]; AMP-adapted line PEX_6) of the same sequence?
A: 1

Q: What about the “Relative change in MIC (MIC of the AMP-adpated line / MIC of the ancestral strain)” value ([2]; AMP-adapted line PEX_7) of the same sequence?
A: 1

Q: And the “Relative change in MIC (MIC of the AMP-adpated line / MIC of the ancestral strain)” value ([2]; AMP-adapted line PR39_1)?
A: 1

Q: What about the “Relative change in MIC (MIC of the AMP-adpated line / MIC of the ancestral strain)” value ([2]; AMP-adapted line PR39_2) of the same sequence?
A: 0.9

Q: What about the “Relative change in MIC (MIC of the AMP-adpated line / MIC of the ancestral strain)” value ([2]; AMP-adapted line PR39_5) of the same sequence?
A: 0.9

Q: What about the “Relative change in MIC (MIC of the AMP-adpated line / MIC of the ancestral strain)” value ([2]; AMP-adapted line PR39_7) of the same sequence?
A: 0.9

Q: What about the “Relative change in MIC (MIC of the AMP-adpated line / MIC of the ancestral strain)” value ([2]; AMP-adapted line PR39_10) of the same sequence?
A: 0.9

Q: And the “Relative change in MIC (MIC of the AMP-adpated line / MIC of the ancestral strain)” value ([2]; AMP-adapted line PROA_2)?
A: 1.1

Q: And the “Relative change in MIC (MIC of the AMP-adpated line / MIC of the ancestral strain)” value ([2]; AMP-adapted line PROA_3)?
A: 0.8

Q: What about the “Relative change in MIC (MIC of the AMP-adpated line / MIC of the ancestral strain)” value ([2]; AMP-adapted line PROA_7) of the same sequence?
A: 1

Q: And the “Relative change in MIC (MIC of the AMP-adpated line / MIC of the ancestral strain)” value ([2]; AMP-adapted line PROA_8)?
A: 1

Q: And the “Relative change in MIC (MIC of the AMP-adpated line / MIC of the ancestral strain)” value ([2]; AMP-adapted line PROA_9)?
A: 1.1

Q: What about the “Relative change in MIC (MIC of the AMP-adpated line / MIC of the ancestral strain)” value ([2]; AMP-adapted line PXB_2) of the same sequence?
A: 1.1

Q: And the “Relative change in MIC (MIC of the AMP-adpated line / MIC of the ancestral strain)” value ([2]; AMP-adapted line PXB_5)?
A: 1

Q: And the “Relative change in MIC (MIC of the AMP-adpated line / MIC of the ancestral strain)” value ([2]; AMP-adapted line PXB_6)?
A: 1.1

Q: What about the “Relative change in MIC (MIC of the AMP-adpated line / MIC of the ancestral strain)” value ([2]; AMP-adapted line PXB_8) of the same sequence?
A: 1

Q: And the “Relative change in MIC (MIC of the AMP-adpated line / MIC of the ancestral strain)” value ([2]; AMP-adapted line PXB_10)?
A: 1.1
